Source: patent US20240246960A1 (adMare Therapeutics Society, priority 2021, published 2024)

Molecular target: T1, DNA-PK phosphorylation at Serine 2056 (Homo sapiens, UniProt P78527)
T1 construct: host or cells: FaDu
Test: Cellular Assay for Inhibition of DNA-PK Phosphorylation at Serine 2056 (FaDu cells, neocarzinostatin, sandwich ELISA)
Assay type: cell-based
Settings: Table 3
Procedure: FaDu cells were purchased from ATCC and maintained in MEM alpha medium (Life Technologies, cat. no. 12561) supplemented with 10% fetal bovine serum, and 1% GlutaMAX at 37° C. supplemented with 5% CO2. 50,000 cells were seeded to each well of a 96-well cell culture plate in 50 μL of culture medium and incubated for 16-24 hours. Three-fold serially diluted compounds were prepared in DMSO. Culture media was used to prepare compound treatments to 0.3% DMSO (dimethyl sulphoxide) content. Compound treatments were added to the cells for 1 hour prior incubation, followed by the addition of neocarzinostatin in fresh culture medium to 1 μg/mL final concentration for an additional 2 hours incubation to induce DNA DSBs (double-strand breaks). DMSO controls were incubated with fresh culture medium alone for the additional two hours incubation. The cells were then lysed and frozen at −20° C. Cell lysates were thawed on wet ice and protein concentrations quantified by BCA Protein Assay (Thermo # 23225). Lysis buffer was used to normalize lysates by protein content and all lysates were then investigated by sandwich ELISA by means of DNA-PK-specific antibodies (Abcam ab44815: total DNA-PK; ab124918: phosphoserine-2056 DNA-PK) in sandwich ELISA format on the MSD S600MM platform (MesoScale Discovery). % inhibition was calculated for all data points: =1−(DATA_PT−AVERAGE(DMSO controls))/(AVERAGE(NCS controls)−AVERAGE(DMSO controls)). Logarithm of the molar concentration of compound was plotted against percent inhibition to calculate IC50 values, with curve fit settings for data fit to log(inhibitor) vs. normalized response—Variable slope using curve fit software (GraphPad Prism).

Compound | IC50 [nM]
Cc1cnc(N[C@H]2CC[C@@H](Oc3nc(N4CCOCC4)cc4ncc(O)cc34)CC2)c(C)c1 [LFA1052, 5-[4-[(3,5-dimethyl-2-pyridyl)amino]cyclohexoxy]-7-morpholino-1,6-naphthyridin-3-ol] | 1000 to 10000
Cc1ccc(N[C@H]2CC[C@@H](Oc3nc(N4CCOCC4)cc4ncc(O)cc34)CC2)cn1 [LFA1053, 5-[4-[(6-methyl-3-pyridyl)amino]cyclohexoxy]-7-morpholino-1,6-naphthyridin-3-ol] | 100 to 1000
Oc1cnc2cc(N3CCOCC3)nc(O[C@H]3CC[C@@H](Nc4ncc(F)cc4F)CC3)c2c1 [LFA1054, 5-[4-[(3,5-difluoro-2-pyridyl)amino]cyclohexoxy]-7-morpholino-1,6-naphthyridin-3-ol] | 100 to 1000
Cc1ccncc1N[C@H]1CC[C@@H](Oc2nc(N3CCOCC3)cc3ncc(O)cc23)CC1 [LFA1055, 5-[4-[(4-methyl-3-pyridyl)amino]cyclohexoxy]-7-morpholino-1,6-naphthyridin-3-ol] | 100 to 1000
Oc1cnc2cc(N3CCOCC3)nc(O[C@H]3CC[C@@H](Nc4ccccn4)CC3)c2c1 [LFA1056, 7-morpholino-5-[4-(2-pyridylamino)cyclohexoxy]-1,6-naphthyridin-3-ol] | < 100
Cc1cc(C)nc(N[C@H]2CC[C@@H](Oc3nc(N4CCOCC4)cc4ncc(O)cc34)CC2)n1 [LFA1057, 5-[4-[(4,6-dimethylpyrimidin-2-yl)amino]cyclohexoxy]-7-morpholino-1,6-naphthyridin-3-ol] | < 100
CN(c1ncccn1)[C@H]1CC[C@@H](Oc2nc(N3CCOCC3)cc3ncc(O)cc23)CC1 [LFA1058, 5-[4-[methyl(pyrimidin-2-yl)amino]cyclohexoxy]-7-morpholino-1,6-naphthyridin-3-ol] | 100 to 1000
Cc1cc(C#N)nc(N[C@H]2CC[C@@H](Oc3nc(N4CCOCC4)cc4ncc(O)cc34)CC2)n1 [LFA1059, 2-[[4-[(3-hydroxy-7-morpholino-1,6-naphthyridin-5-yl)oxy]cyclohexyl]amino]-6-methyl-pyrimidine-4-carbonitrile] | 100 to 1000
CN(C)Cc1cnc(N[C@H]2CC[C@@H](Oc3nc(N4CCOCC4)cc4ncc(O)cc34)CC2)nc1 [LFA1060, 5-[4-[[5-[(dimethylamino)methyl]pyrimidin-2-yl]amino]cyclohexoxy]-7-morpholino-1,6-naphthyridin-3-ol] | < 100
CS(=O)(=O)Nc1cnc2cc(N3CCOCC3)nc(O[C@H]3CC[C@@H](n4cc(F)cn4)CC3)c2c1 [LFA1061, N-[5-[4-(4-fluoropyrazol-1-yl)cyclohexoxy]-7-morpholino-1,6-naphthyridin-3-yl]methanesulfonamide] | < 100
Cn1cc([C@H]2CC[C@@H](Oc3nc(N4CCOCC4)cc4ncc(NS(C)(=O)=O)cc34)CC2)cn1 [LFA1062, N-[5-[4-(1-methylpyrazol-4-yl)cyclohexoxy]-7-morpholino-1,6-naphthyridin-3-yl]methanesulfonamide] | 100 to 1000
Cn1cc([C@H]2CC[C@H](Oc3nc(N4CCOCC4)cc4ncc(NS(C)(=O)=O)cc34)CC2)cn1 [LFA1063, N-[5-[4-(1-methylpyrazol-4-yl)cyclohexoxy]-7-morpholino-1,6-naphthyridin-3-yl]methanesulfonamide] | 10000 to 30000
CS(=O)(=O)Nc1cnc2cc(N3CCOCC3)nc(O[C@H]3CC[C@@H](c4cnccn4)CC3)c2c1 [LFA1064, N-[7-morpholino-5-(4-pyrazin-2-ylcyclohexoxy)-1,6-naphthyridin-3-yl]methanesulfonamide] | 100 to 1000
Oc1cnc2cc(N3CCOCC3)nc(O[C@H]3CC[C@@H](c4cnccn4)CC3)c2c1 [LFA1065, 7-morpholino-5-(4-pyrazin-2-ylcyclohexoxy)-1,6-naphthyridin-3-ol] | < 100
N-[5-[4-[(4,6-dimethylpyrimidin-2-yl)amino]cyclohexoxy]-7-morpholino-1,6-naphthyridin-3-yl]methanesulfonamide;2,2,2-trifluoroacetic acid [LFA1046] | 100 to 1000

Molecular target: T2, DNA-PK (Homo sapiens, UniProt P78527)
T2 construct: purchased Invitrogen PR9107A
Test: DNA-PK Assay for Biochemical Enzymatic Inhibition (ADP Glo Kinase assay)
Settings: Table 1
Procedure: A biochemical assay was performed to identify IC50 values against DNA-PK activity in a two-step reaction with a kinase reaction followed by ADP Glo™ Kinase assay Kit (Promega V9102).
Three-fold serial dilutions of compounds in DMSO were prepared in kinase assay buffer (50 mM HEPES pH 7.5, 20 mM MgCl2, 100 mM KCl, 50 μM DTT, 10 μg/ml calf thymus DNA, 0.01% Tween 20). Kinase assay buffer was used to prepare compound treatments to 0.02% DMSO (dimethyl sulphoxide) content. DMSO controls were prepared to produce a maximum and minimum luminescence signal for normalization. Substrate (Anaspec, AS-60210-5) and ATP (Promega V9102) and ATP mix was prepared by dilution in kinase assay buffer for 434.4 μM and 64.4 μM final assay concentrations, respectively. Compounds and control were added to 25 ng DNA-PK enzyme (Invitrogen, PR9107A) diluted in kinase buffer in assay plate (Corning 267459) and incubated for 15 minutes at room temperature prior to addition of substrate and ATP mix.
Throughout the assay, each time a reagent was added to the microplate, it was centrifuged for 1 minute at 1300 rcf. All reagents were added, and incubations carried out at room temperature. The reaction was then incubated for 60 minutes. ADP-ATP standards at 0, 4, 10, 40, 80, and 100% ADP (prepared as specified in the ADP Glo™ Kinase assay kit) were also added to the microplate at a volume equal to the total kinase reaction. The ADP Glo™ Kinase Assay kit was then used to quantify DNA-PK activity: following the 60-minute incubation, a 1:1 volume of ADP Glo reagent was added to all wells, then following a further 45-minute incubation, a 1:1 volume of Kinase Detection Reagent was added to all wells. After this two-step assay, plates were incubated in a Synergy-Neo2 plate reader for 30 minutes with gentle shaking, followed by endpoint luminescent read Luminescence data was normalized by subtracting the background signal and expressing all background-adjusted values as a percentage of the average maximum signal. The data was then expressed as percent inhibition by subtracting from 100% (i.e. maximum luminescent signal will be 0% inhibition) and the resulting data plotted against ten concentration points on a logarithmic scale, using GraphPad Prism. Non-linear regression analysis was performed on each concentration response curve and the log [inhibitor] vs response—variable slope (four parameters) equation was selected to generate IC50 values.

Compound | IC50 [nM]
Cn1cc([C@H]2CC[C@H](Oc3nc(N4CCOCC4)cc4ncc(Br)cc34)CC2)cn1 [Compound 3b, 4-(3-bromo-5-(((1r,4r)-4-(1-methyl-1H-pyrazol-4-yl)cyclohexyl)oxy)-1,6-naphthyridin-7-yl)morpholine] | 10 to 150
Cn1cc([C@H]2CC[C@@H](Oc3nc(N4CCOCC4)cc4ncc(O)cc34)CC2)cn1 [Compound 4b, 5-(((1r,4r)-4-(1-methyl-1H-pyrazol-4-yl)cyclohexyl)oxy)-7-morpholino-1,6-naphthyridin-3-ol] | 10 to 150
FC(F)(F)c1ccn([C@H]2CC[C@@H](Oc3nc(N4CCOCC4)cc4ncccc34)CC2)n1 [Compound 17c, 4-(5-(((1s,4s)-4-(3-(trifluoromethyl)-1H-pyrazol-1-yl)cyclohexyl)oxy)-1,6-naphthyridin-7-yl)morpholine] | 10 to 150
COc1cnc(N[C@H]2CC[C@@H](Oc3nc(N4CCOCC4)cc4ncc(Br)cc34)CC2)nc1 [Compound 18c, N-((1s,4s)-4-((3-Bromo-7-morpholino-1,6-naphthyridin-5-yl)oxy)cyclohexyl)-5-methoxypyrimidin-2-amine] | 10 to 150
CCOC(=O)N[C@H]1CC[C@@H](Oc2nc(N3CCOCC3)cc3ncccc23)CC1 [Compound 104, Ethyl ((1s,4s)-4-((7-morpholino-1,6-naphthyridin-5-yl)oxy)cyclohexyl)carbamate] | 10 to 150
O=C(N[C@H]1CC[C@@H](Oc2nc(N3CCOCC3)cc3ncccc23)CC1)c1cncnc1C(F)(F)F [Compound 130, N-((1s,4s)-4-((7-morpholino-1,6-naphthyridin-5-yl)oxy)cyclohexyl)-4-(trifluoromethyl)pyrimidine-5-carboxamide] | 10 to 150
O=S(=O)(N[C@H]1CC[C@@H](Oc2nc(N3CCOCC3)cc3ncccc23)CC1)c1ccccc1 [Compound 147, N-((1s,4s)-4-((7-Morpholino-1,6-naphthyridin-5-yl)oxy)cyclohexyl)benzenesulfonamide] | 10 to 150
O=S(=O)(N[C@H]1CC[C@@H](Oc2nc(N3CCOCC3)cc3ncccc23)CC1)c1ccc(F)cc1 [Compound 148, 4-Fluoro-N-((1s,4s)-4-((7-morpholino-1,6-naphthyridin-5-yl)oxy)cyclohexyl)benzenesulfonamide] | 10 to 150
COc1ccc(S(=O)(=O)N[C@H]2CC[C@@H](Oc3nc(N4CCOCC4)cc4ncccc34)CC2)cc1 [Compound 149, 4-Methoxy-N-((1s,4s)-4-((7-morpholino-1,6-naphthyridin-5-yl)oxy)cyclohexyl)benzenesulfonamide] | 10 to 150
O=C([C@H]1CC[C@@H](Oc2nc(N3CCOCC3)cc3ncccc23)CC1)N1CCOCC1 [Compound 154a, morpholino((1S,4S)-4-((7-morpholino-1,6-naphthyridin-5-yl)oxy)cyclohexyl)methanone] | 10 to 150
CN1CCN(C(=O)[C@H]2CC[C@@H](Oc3nc(N4CCOCC4)cc4ncccc34)CC2)CC1 [Compound 154d, (4-methylpiperazin-1-yl)((1S,4S)-4-((7-morpholino-1,6-naphthyridin-5-yl)oxy)cyclohexyl)methanone] | 10 to 150
CC(=O)Nc1cnc2cc(N3CCOCC3)nc(O[C@H]3CC[C@@H](n4ccnc4)CC3)c2c1 [Compound 162, N-(5-(((1s,4s)-4-(1H-imidazol-1-yl)cyclohexyl)oxy)-7-morpholino-1,6-naphthyridin-3-yl)acetamide] | 10 to 150
